Experimental data from US20250108038A1 (priority 2023, published 2025).
Like-named read-outs stand apart in the source and are kept apart here.

Assay type: physicochemical
Description: All conditions and stock preparation procedures were identical to the conditions applied in the transporter assays (Table 74, Table 75 and Table 76). […] A follow-up assay was carried out at 7 concentrations in order to correct the nominal concentrations for the IC50 calculations (Table 78). Where NSB was observed (>20% loss) the assay concentrations were corrected according to the result of the respective NSB assay.
All conditions and stock preparation procedures were identical to the conditions applied in the transporter assays.
Samples (1.5×C0 or Total) were immediately taken after mixing to determine the total initial concentrations. The assay mixes were pre-incubated for 15 minutes at 37° C. and at 32° C. in case of BCRP and MDR1. After the pre-incubation step the assay mixes were 1.5-times diluted with (pre-warmed) transport buffer reaching the final nominal concentrations of the compounds in the VT assay and then were further incubated at 37° C. or 32° C. for BCRP and MDR1 and sampled in the end of incubation (timc).
The aqueous buffer was mixed, and samples (C0 or Total) were immediately taken for determining the total initial concentrations. The helper plate was pre-warmed for 15 minutes at 37° C. The pre-warmed aliquots of the aqueous buffers with the test articles (50 μL) were transferred from the helper plate into the wells of another 96-well plate (assay plate) and incubated for 30 minutes (pre-incubation) then removed from the wells. Thereafter the same wells of the assay plate were dosed again with other aliquots of the aqueous buffers with the test articles and were further incubated in the assay plate at 37° C. and finally sampled (tinc).

[1] = HBSS (pH 7.4) uptake buffer, 37° C., nominal 10.00 μM
[2] = HBSS (pH 7.4) uptake buffer, 37° C., nominal 100.00 μM
[3] = HBSS (pH 7.4), 37° C., nominal 0.412 μM, IC50 determination
[4] = HBSS (pH 7.4), 37° C., nominal 1.235 μM, IC50 determination
[5] = HBSS (pH 7.4), 37° C., nominal 3.704 μM, IC50 determination
[6] = HBSS (pH 7.4), 37° C., nominal 11.11 μM, IC50 determination
[7] = HBSS (pH 7.4), 37° C., nominal 33.33 μM, IC50 determination
[8] = HBSS (pH 7.4), 37° C., nominal 100.00 μM, IC50 determination
[9] = KH (pH 8.0) uptake buffer, 37° C., nominal 10.000 μM
[10] = KH (pH 8.0) uptake buffer, 37° C., nominal 100.000 μM
[11] = KH (pH 8.0), 37° C., nominal 0.412 μM, IC50 determination
[12] = KH (pH 8.0), 37° C., nominal 1.235 μM, IC50 determination
[13] = KH (pH 8.0), 37° C., nominal 3.704 μM, IC50 determination
[14] = KH (pH 8.0), 37° C., nominal 11.11 μM, IC50 determination
[15] = KH (pH 8.0), 37° C., nominal 33.33 μM, IC50 determination
[16] = KH (pH 8.0), 37° C., nominal 100.00 μM, IC50 determination
[17] = Transport buffer (pH 7.4) for BSEP VT inhibition assay, 37° C., nominal C0 10.00 μM
[18] = Transport buffer (pH 7.4) for BSEP VT inhibition assay, 37° C., nominal C0 100.00 μM
[19] = Transport buffer with sucrose (pH 7.4) for BCRP and MDR1 VT inhibition assay, 32° C., nominal C0 10.00 μM

Clc1ccc(C2(OCC3OCCO3)c3ccccc3C3=NCCN32)cc1 (centres unmarked) [Compound I-19]
Non-specific binding (NSB) (BCRP, BSEP and MDR1 VT inhibition assay setup): did not show any loss due to plastic binding
Non-specific binding (NSB) (HBSS (pH 7.4) and KH (pH 8.0) uptake assay buffers): more than 20%
Concentration after incubation [1]: 5.98 ± 0.13 µM
Loss of Compound I-19 during the NSB assay [1]: 34%
Measured dosing concentrations [1]: 8.99 ± 0.60 µM
Concentration after incubation [2]: 59.43 ± 5.59 µM
Loss of Compound I-19 during the NSB assay [2]: 23%
Measured dosing concentrations [2]: 76.99 ± 6.62 µM
Concentration after incubation [3]: 0.35 ± 0.03 µM
Loss of Compound I-19 during the NSB assay [3]: 39%
Measured dosing concentrations [3]: 0.57 ± 0.14 µM
Concentration after incubation [4]: 0.83 ± 0.07 µM
Loss of Compound I-19 during the NSB assay [4]: 30%
Measured dosing concentrations [4]: 1.18 ± 0.09 µM
Concentration after incubation [5]: 2.49 ± 0.18 µM
Loss of Compound I-19 during the NSB assay [5]: 49%
Measured dosing concentrations [5]: 4.84 ± 0.73 µM
Concentration after incubation [6]: 6.86 ± 0.20 µM
Loss of Compound I-19 during the NSB assay [6]: 29%
Measured dosing concentrations [6]: 9.59 ± 1.50 µM
Concentration after incubation [7]: 17.44 ± 3.56 µM
Loss of Compound I-19 during the NSB assay [7]: 27%
Measured dosing concentrations [7]: 23.77 ± 2.59 µM
Concentration after incubation [8]: 34.49 ± 3.00 µM
Loss of Compound I-19 during the NSB assay [8]: 12%
Measured dosing concentrations [8]: 38.99 ± 3.97 µM
Concentration after incubation [9]: 5.54 ± 0.13 µM
Loss of Compound I-19 during the NSB assay [9]: 36%
Measured dosing concentrations [9]: 8.68 ± 0.34 µM
Concentration after incubation [10]: 20.35 ± 1.94 µM
Loss of Compound I-19 during the NSB assay [10]: 33%
Measured dosing concentrations [10]: 30.52 ± 1.33 µM
Concentration after incubation [11]: 0.27 ± 0.02 µM
Loss of Compound I-19 during the NSB assay [11]: 39%
Measured dosing concentrations [11]: 0.44 ± 0.10 µM
Concentration after incubation [12]: 0.73 ± 0.04 µM
Loss of Compound I-19 during the NSB assay [12]: 34%
Measured dosing concentrations [12]: 1.10 ± 0.10 µM
Concentration after incubation [13]: 1.68 ± 0.26 µM
Loss of Compound I-19 during the NSB assay [13]: 36%
Measured dosing concentrations [13]: 2.63 ± 1.34 µM
Concentration after incubation [14]: 4.05 ± 0.49 µM
Loss of Compound I-19 during the NSB assay [14]: 45%
Measured dosing concentrations [14]: 7.32 ± 3.86 µM
Concentration after incubation [15]: 12.58 ± 1.30 µM
Loss of Compound I-19 during the NSB assay [15]: 39%
Measured dosing concentrations [15]: 20.72 ± 2.88 µM
Concentration after incubation [16]: 34.06 ± 2.30 µM
Loss of Compound I-19 during the NSB assay [16]: 25%
Measured dosing concentrations [16]: 45.32 ± 9.94 µM
Concentration after incubation (tinc) [17]: 12.92 ± 0.21 µM
Loss of Compound I-19 during the NSB assay [17]: −4%
Measured dosing concentrations ([…] C0) [17]: 18.55 ± 0.06 µM
Concentration after incubation (tinc) [18]: 122.52 ± 9.60 µM
Loss of Compound I-19 during the NSB assay [18]: −13%
Measured dosing concentrations ([…] C0) [18]: 162.83 ± 11.51 µM
Concentration after incubation (tinc) [19]: 13.10 ± 1.26 µM
Loss of Compound I-19 during the NSB assay [19]: −11%
Measured dosing concentrations ([…] C0) [19]: 17.68 ± 0.42 µM
